For test [1], the system named is mouse model of ischemic stroke. Briefly: Ex vivo MRI (T2WI, DTI) 7 days post-stroke. In kind it is in vivo. Particulars: p>0.05. As to the method:
For ex-vivo MRI, brains were maintained within the skull to avoid anatomical deformation. After overnight post-fixation in 4% PFA, heads were stored in PBS solution at 4° C. […] was performed at 500 MHz using a Bruker AV3HD 11.7 T/89 mm vertical bore small animal MRI scanner, equipped with a 25-mm quadrature RF coil and Paravision 6.0 (Bruker Biospin, Billerica, Mass.).
In a blinded manner, region of interests (ROIs) were manually drawn for the ipsilateral (IL) and contralateral (CL) cortex, striatum, corpus callosum (CC), and external capsule (EC). Values for the fractional anisotropy (FA), […] diffusion coefficient (ADC), and diffusivity were calculated for the entire volume of each ROI.
Referring to FIG. 15A, representative T2WI images and quantitative analyses of lesion volume and atrophy (shrinkage) of ex vivo brains from vehicle (Veh) control and ZT-1a-treated mice at 7 days post-MCAO are shown. […]
Referring to FIG. 15B, representative images of directionally encoded color (DEC) and fractional anisotropy (FA) maps are shown. […] Bar graphs display quantitation of mean values of FA, mean diffusivity (MD), axial diffusivity (AD) and radial diffusivity (RD) of white matter tissues (CC or EC) of ex vivo brain from vehicle control (Veh) and ZT-1a-treated mice at 7 days post-MCAO. […]

A further test has as its system NKCC1 pThr203. Briefly: Phosphorylation immunoblot in KCC2-transfected HEK293 cells. In kind it is cell-based, human. The method, then:
HEK293 (human embryonic kidney 293) cells were cultured on 10-cm-diameter dishes in DMEM supplemented with 10% (v/v) foetal bovine serum, 2 mM L-glutamine, 100 U/ml penicillin and 0.1 mg/ml streptomycin. HEK293 cells were transfected with a mixture of 20 μl of 1 mg/ml polyethylenimine (Polysciences) and 5-10 μg of plasmid DNA as described previously (Durocher et al., 2002). 36 hours post-transfection cells were stimulated with either control isotonic or hypotonic medium for a period of 30 minutes. Cells were lysed in 0.3 mL of ice-cold lysis buffer/dish, lysates were clarified by centrifugation at 4° C. for 15 minutes at 26,000 g and the supernatant aliquots were frozen in liquid nitrogen and stored at −20° C. Protein concentrations were determined using the Bradford method. Cells were treated with the indicated concentrations of the SPAK/OSR1 inhibitors. […] Hypotonic low chloride buffer was 67.5 mM sodium-gluconate, 2.5 mM potassium-gluconate, 0.25 mM CaCl2), 0.25 mM MgCl2, 0.5 mM Na2HPO4, 0.5 mM Na2SO4 and 7.5 mM HEPES (pH 7.5).
The membranes were incubated for 30 min with TBST (Tris-buffered saline, 0.05% Tween-20) containing 5% (w/v) skim milk. The blots were then washed six times with TBST and incubated for 1 hour at room temperature with secondary HRP-conjugated antibodies diluted 5000-fold in 5% (w/v) skim milk in TBST. After repeating the washing steps, signals were detected with enhanced chemiluminescence reagent. Immunoblots were developed using a film automatic processor (SRX-101; Konica Minolta Medical) and films were scanned at 600 dpi (PowerLook 1000; UMAX). Figures were generated using Photoshop/Illustrator (Adobe). The densities of bands were measured with ImageJ. For phospho-antibody immunoprecipitation, KCC isoforms were immunoprecipitated from indicated cell extracts. 2 mg of the indicated clarified cell extract were mixed with 15 μg of the indicated phospho-specific KCC antibody conjugated to 15 μl of protein-G-Sepharose, in the added presence of […] of the dephosphorylated form of the phosphopeptide antigen, and incubated 2 hours at 4° C. with gentle shaking. Immunoprecipitates were washed three times with 1 mL of lysis buffer containing 0.15 M NaCl and twice with 1 ml of buffer A. Bound proteins were eluted with 1×LDS sample buffer.
HEK293 cells were transfected with a DNA construct encoding wild type N-terminally FLAG-tagged KCC2. 36 hrs post-transfection, cells were exposed 30 min to either control isotonic or hypotonic low [C1^−] conditions, then treated in the same conditions for an additional 30 min with the indicated inhibitors at the concentrations noted. Cell lysates were subjected to SDS-PAGE and Western blotting with the indicated antibodies. See FIG. 3 for Western blot quantitation.
Referring to FIG. 2, concentration-response experiments testing effects of Closantel analogs on phosphorylation of KCC2 Thr906/Thr1007 are shown. HEK293 cells were transfected with DNA construct encoding wild type N-terminally FLAG-tagged KCC2. 36 h post-transfection, cells were exposed 30 min to either control isotonic conditions or hypotonic low Cl^− conditions, then treated in the same conditions with the specified inhibitors (1b, 1c, 1f, 1d, 1h, and 1g, respectively) at the indicated concentrations for an additional 30 min. Lysates were subjected to SDS-PAGE and Western blotting with the indicated antibodies.
Referring to FIG. 3, HEK293 cells were transfected with the DNA construct encoding wild type N-terminally FLAG-tagged KCC2. 36 h post-transfection, cells were exposed 30 min to either control isotonic or hypotonic low Cl^− conditions, then treated in the same conditions with the specified inhibitors at the indicated concen-trations for an additional 30 min. Lysates were subjected to SDS-PAGE and Western blotting with the indicated antibodies. Closantel, STOCK1S-14279 and STOCK1S-50699 were used as reference compounds.
On the technique in general: Immunoblotting shows a protein as a band on a membrane.

As for `Cc1cc(C(C#N)c2ccc(Cl)cc2)c(Cl)cc1NC(=O)c1cc(Cl)ccc1O` (stereo not shown) [ZT-1a, 5-chloro-N-(5-chloro-4-((4-chlorophenyl)(cyano)methyl)-2-methylphenyl)-2-hydroxy-benzamide], in test [1], the “EC tract FA values in the IL hemisphere” value is on record as “did not change”. Also, the inhibition at 1 µM in the test with NKCC1 pThr203 (Homo sapiens, read-out: inhibition of NKCC1 p-Thr203/207/212, up to, at 1 μM, n=4) was at most 72%. Also, the “NKCC1 pThr203 (μM) hypo” value in the test with NKCC1 pThr203 (hypotonic low Cl- conditions, concentration inhibiting phosphorylation) is given as 1, 1 μM. Besides, the “NKCC1 pThr203 (μM) Iso” value in the test on NKCC1 pThr203 (isotonic conditions, concentration inhibiting phosphorylation) is on record as 1, 1 μM.

For the origin of these results see patent US11414379B2, “SPAK kinase inhibitors as neuroprotective agents” (United States Government as represented by the Department …, priority 2018, dated 2022).
